How the values were obtained:
Format in all cases: cell-based, human
[1] = tested on: MU89 cell line; test: Western blot (BRAF, Melan-A/MART-1, TRP-2, phosphorylated MEK and ERK)
Protocol: A. Western blot performed on extracts of the MU89 cell line treated as indicated for three days. Extracts were probed with antibodies to BRAF, Melan-A/MART-1, TRP-2, or beta-Actin. 30 μg of total protein was loaded in each lane of the gel. […] B. Protein gel electrophoresis was performed using 30 μg of total protein extracts prepared from the indicated cell lines. Cells were untreated (control) or treated with 0.15 μg/ml of BIIB021 for three days. After transfer Western blots were probed with antibodies to phosphorylated MEK (p-MEK) or β-Actin.
FIG. 17 is a series of Western blots that show changes in protein levels and state of phosphorylation after treatment with an Hsp90 inhibitor. A primary Anti BRAF (H145) antibody was used at a 1:5000 dilution. A secondary Goat anti rabbit antibody was used at a dilution of 1:5000. […]
To address the effect of Hsp90 inhibition on the MAP kinase pathway, protein levels and signaling activity (protein phosphorylation levels) of the proteins in this pathway were analyzed directly. […]
Cell lysates were prepared using RIPA buffer from Santa Cruz (Santa Cruz, Calif.) containing protease and phosphatase inhibitors. Protein concentrations were determined using Bradford assay from BioRad (Hercules, Calif.). […] Sizes of proteins were determined by comparison to the Broad prestained protein standard ladder from BioRad (Hercules, Calif.).

[2] = tested on: 453A melanoma cell line; test: Intracellular antibody staining and flow cytometry (Melan-A/MART-1, gp100/HMB45); conditions: 453A (BRAF M/WT, NRAS WT); 3 days; 17-AEP 1.00, CCT018159 10.00, PU-H71 0.30 μg/ml
Protocol: (§1) Cells were fixed with 1% formaldehyde, permeabilized with 0.1% saponin, stained with monoclonal antibodies to melanocyte antigens. Antibodies were obtained with specificity for: MART-1 from Vector Labs (Burlingame, Calif.); gp100 HMB45 from DakoCytomation (Carpinteria, Calif.) and then visualized with goat anti-mouse FITC-conjugated secondary antibody from Invitrogen (Fredrick, Md.). The level of EGFP was determined by flow cytometry of unfixed cells that were washed and resuspended in 1×PBS.
Cells were plated at a density of 1×10^5 in 1 ml of medium in a 24-well plate and cultured for varying times as indicated in results. […] After incubation, cells were collected by trypsinization and then evaluated by flow cytometry.
as §1, with “Intracellular staining and flow cytometric analyses of cytoplasmic Melan-A/MART-1, and gp100 expression were performed as described previously. Cells” for “Cells”, “Melan-A/MART-1” for “MART-1”, “gp100/HMB45” for “gp100 HMB45”, “(Frederick,” for “(Fredrick,”, “cells” for “cells that were”, “1×PBS. […]” for “1×PBS.”

[3] = tested on: MM455 melanoma cell line; test: Intracellular antibody staining and flow cytometry (gp100/HMB45); conditions: MM455 (BRAF M/WT, NRAS WT); 3 days; 17-AEP 0.50, CCT018159 2.50, PU-H71 0.25 μg/ml
Protocol: (§2) Several cell lines expressing varying native-sequences, (wild-type (WT) or mutant (M) alleles of these genes were evaluated), to determine if there is a relationship between levels of Hsp90 inhibitor-mediated antigen up-regulation and BRAF and NRAS mutational status. Mutant status of the NRAS and BRAF loci were determined previously.
(§3) Cells were plated at a density of 1×10^5 in 1 ml of medium in a 24-well plate and cultured for varying times as indicated in results. Typically, 3 days of culture in the presence of Hsp90 inhibitors was optimal for the functional studies performed. After incubation, cells were collected by trypsinization and then evaluated by flow cytometry.
as §1, with “Intracellular staining and flow cytometric analyses of cytoplasmic Melan-A/MART-1, and gp100 expression were performed as described previously. Cells” for “Cells”, “Melan-A/MART-1” for “MART-1”, “gp100/HMB45” for “gp100 HMB45”, “(Frederick,” for “(Fredrick,”, “cells” for “cells that were”, “1×PBS. […]” for “1×PBS.”

[4] = tested on: Roth melanoma cell line; test: as above; conditions: Roth (BRAF WT, NRAS M/M); 3 days; 17-AEP 0.50, CCT018159 2.50, PU-H71 0.25 μg/ml
Protocol: as §2, §3
as §1, with “Intracellular staining and flow cytometric analyses of cytoplasmic Melan-A/MART-1, and gp100 expression were performed as described previously. Cells” for “Cells”, “Melan-A/MART-1” for “MART-1”, “gp100/HMB45” for “gp100 HMB45”, “(Frederick,” for “(Fredrick,”, “cells” for “cells that were”, “1×PBS. […]” for “1×PBS.”

| SMILES | BRAF protein level (Western blot) ([1]; 3 days) | Phosphorylated MEK and Phosphorylated ERK levels (Western blot) ([1]; 3 days (FIG. 17)) | HMB45, level of induction relative to untreated control cells [2] | MART-1, level of induction relative to untreated control cells [2] | HMB45, level of induction relative to untreated control cells [3] | HMB45, level of induction relative to untreated control cells [4] |
| --- | --- | --- | --- | --- | --- | --- |
| CO[C@H]1/C=C\C=C(/C)C(=O)NC2=CC(=O)C(NCCN3CCCC3)=C(C[C@@H](C)C[C@H](OC)[C@H](O)[C@@H](C)/C=C(\C)[C@@H]1OC(N)=O)C2=O [17-AEP] | reduces levels of BRAF | decreased levels |  |  |  |  |
| CCc1cc(-c2n[nH]c(C)c2-c2ccc3c(c2)OCCO3)c(O)cc1O [CCT018159] |  |  | 3.38 | 3.29 | 1.16 | 1.95 |

Reference: patent US20140335050A1, “METHODS, COMPOSITIONS, AND KITS FOR THE TREATMENT OF CANCER” (The General Hospital Corporation, priority 2011, published 2014)
